Results on seven compounds are retold here after patent publication US11306063B2, “Heterocyclic naphthoquinones derivatives for use in the treatment of cancers including Cushing disease” (Commissariat a l'Energie Atomique et aux Energies …, priority 2016, dated 2022).

The target in assay [1] is T1, USP2 full length (USP2^FL) (Homo sapiens, UniProt O75604).
T1 construct: purchased BioSciences 80352
T1 sequence (O75604 1-605): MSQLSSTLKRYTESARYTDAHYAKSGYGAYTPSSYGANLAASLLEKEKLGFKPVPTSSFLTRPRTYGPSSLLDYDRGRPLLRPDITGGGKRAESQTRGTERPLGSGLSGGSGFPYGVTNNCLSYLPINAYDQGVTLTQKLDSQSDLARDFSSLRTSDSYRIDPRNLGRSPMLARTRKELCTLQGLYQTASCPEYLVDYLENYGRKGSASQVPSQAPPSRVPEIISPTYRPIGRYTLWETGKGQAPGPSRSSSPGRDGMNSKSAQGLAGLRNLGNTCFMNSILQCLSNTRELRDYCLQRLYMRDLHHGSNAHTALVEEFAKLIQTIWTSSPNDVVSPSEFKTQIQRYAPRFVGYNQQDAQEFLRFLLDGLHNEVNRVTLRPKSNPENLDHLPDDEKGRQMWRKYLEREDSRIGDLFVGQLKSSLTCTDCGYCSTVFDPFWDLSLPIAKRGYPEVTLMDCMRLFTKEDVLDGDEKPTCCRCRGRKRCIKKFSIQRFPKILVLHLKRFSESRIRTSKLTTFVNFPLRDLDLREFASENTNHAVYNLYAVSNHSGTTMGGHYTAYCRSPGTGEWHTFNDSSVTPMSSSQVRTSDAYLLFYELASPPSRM
The experiment in a line: Inhibition of Ub-AMC hydrolysis by USP2 full length. The assay is classed as biochemical. The following applies: Ub-AMC at 1 μM, Table 1a; for inhibition at 1 µM: 1 μM compound; for inhibition at 5 µM: 5 μM compound; for inhibition at 25 µM: 25 μM compound; for inhibition at 50 µM: 50 μM compound. On the procedure: (§1) Enzymatic assay was performed in a HEPES buffer (50 mM pH7.6 1 mM DTT, 2% glycerol, 0.5 mM EDTA) or in a Tris buffer (40 mM pH7.4 1 mM DTT, 5% glycerol, 0.05 mg/ml BSA) respectively, following manufacturer's instructions. Compounds were added to the reaction mixture just prior to the substrate. The enzymatic reaction kinetics was monitored through the apparition of fluorescence due to the hydrolysis of the peptidyl Ub-AMC or Ub-Rho bound over 20 or 30 minutes.

Assay [2] concerns the target T2, USP2^CD (purified catalytic domain of USP2) (Homo sapiens, UniProt O75604).
T2 construct: The purified catalytic domain of USP2 (USP2^CD, in-house purified); His; made in house; host or cells: E. coli BL21 Gold
T2 sequence (O75604 267-599 limits assumed): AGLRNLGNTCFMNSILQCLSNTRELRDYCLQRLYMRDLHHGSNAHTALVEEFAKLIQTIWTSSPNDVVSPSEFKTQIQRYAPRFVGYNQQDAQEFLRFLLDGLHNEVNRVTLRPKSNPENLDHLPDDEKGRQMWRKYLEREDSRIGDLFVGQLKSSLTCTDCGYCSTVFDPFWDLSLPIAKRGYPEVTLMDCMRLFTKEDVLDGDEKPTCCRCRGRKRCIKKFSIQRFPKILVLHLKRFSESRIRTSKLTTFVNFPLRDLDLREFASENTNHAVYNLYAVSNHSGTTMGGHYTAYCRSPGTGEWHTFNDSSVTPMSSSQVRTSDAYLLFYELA
In words: Inhibition of purified USP2^CD enzymatic activity (Ub-AMC or Ub-Rho substrate). The assay is classed as biochemical. On the procedure: (§2) USP2CD or USP8CD were expressed in E. coli BL21 Gold. Cells were grown in LB Miller to mid-log phase and induced by addition of 0.5 mM IPTG for USP2CD for 5 h at 20° C., while 1 mM IPTG was added for USP8CD for 3 h at 37° C. Then, cells were harvested and frozen at −80° C.
For His-tagged USP2CD, cells were resuspended in buffer C (10 mM TRIS pH 8.0, 100 mM NaCl, 10 mM Imidazole) and lysed using a sonicator. The lysate was clarified by centrifugation and applied to Ni Sepharose6 Fast Flow resin (GE Healthcare). The resin was sequentially washed with buffer C, then with buffer C containing 50 mM Imidazole. Protein sample was eluted from the resin using buffer C containing 250 mM Imidazole. The eluted protein was buffer exchanged by gel-filtration on a Superdex 200 10/300 GL column (GE Healthcare) equilibrated in Buffer D (15 mM Bis-TRIS pH 6.0, 100 mM NaCl, 1 mM dithiothreitol (DTT)).
as §1
(§3) Medium value out of duplicates is reported.

Assay [3] concerns the target T3, USP8^CD (purified catalytic domain of USP8) (Homo sapiens, UniProt P40818).
T3 construct: the purified catalytic domain of USP8 (USP8^CD, in-house purified); made in house; host or cells: E. coli BL21 Gold
T3 sequence (P40818 777-1109 limits assumed): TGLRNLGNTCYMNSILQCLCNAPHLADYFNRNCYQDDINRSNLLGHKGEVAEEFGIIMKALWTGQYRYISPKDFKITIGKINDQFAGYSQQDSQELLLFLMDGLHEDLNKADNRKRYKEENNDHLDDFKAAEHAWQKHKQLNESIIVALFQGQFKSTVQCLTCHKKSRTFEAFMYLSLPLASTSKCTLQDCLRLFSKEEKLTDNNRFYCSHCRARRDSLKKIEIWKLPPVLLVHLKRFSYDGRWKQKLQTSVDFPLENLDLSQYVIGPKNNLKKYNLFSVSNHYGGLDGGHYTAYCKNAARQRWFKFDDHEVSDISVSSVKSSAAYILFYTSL
The experiment in a line: Inhibition of purified USP8^CD enzymatic activity (Ub-AMC or Ub-Rho substrate). As to conditions: for USP8^CD % inhibition / inhibition at 1 µM: Ub-AMC at 1 μM, Table 1a; for inhibition at 1 µM: 1 μM compound. It is filed as biochemical. The protocol: as §2
For His-tagged USP8CD, cells were resuspended in buffer A (50 mM TRIS pH 8.0, 500 mM NaCl, 2 mM Imidazole) and lysed using a sonicator. The lysate was clarified by centrifugation and applied to Ni Sepharose6 Fast Flow resin (GE Healthcare). The resin was sequentially washed first with buffer A containing 10 mM Imidazole then with buffer A containing 20 mM Imidazole, and finally with buffer A containing 50 mM Imidazole. Protein sample was eluted from the resin using buffer A containing 300 mM Imidazole. The eluted protein was buffer exchanged by gel-filtration on a Superdex 200 10/300 GL column (GE Healthcare) equilibrated in Buffer B (20 mM HEPES pH 7.5, 300 mM NaCl, 2 mM dithiothreitol (DTT)).
as §1, §3

For assay [4], the system named is MESSA cells. In words: Cytotoxicity assay (PrestoBlue cell viability), MESSA. The assay is classed as cell-based. The following applies: Homo sapiens, MES-SA; 48 hours treatment; concentration inducing 50% cell mortality. The protocol: (§4) Messa, Messa DX5, HCT116, HEK-293, PC-3, LNCaP, HCC827 and H1975 cell lines are issued from the American Type Culture Collection (ATCC).
(§5) Messa, Messa DX5 and HCT116 were maintained in McCoy's supplemented with 10% fetal bovine serum, and 1% penicillin/streptomycin. PC-3, LNCaP cells were maintained in RPMI medium supplemented with 10% fetal bovine serum, and 1% penicilin/streptomycin and in the case of Messa DX5: 500 nM Doxorubicin was added to maintain selection pressure. HEK293 were maintained in DMEM medium supplemented with 10% fetal bovine serum, and 1% penicillin/streptomycin. Cells were maintained at 37° C. with 5% CO2, 95% air, and humid atmosphere. In the case of hormonal dependent LNCaP cells, 2 μM DiHydroTestosterone (DHT) was added or not—depending on the type of biological assay—for the same incubation period as compounds.
(§6) For cytotoxicity assays, cells were seeded in 96-well microplates 24 hours before the addition of increasing concentrations of each compound in the culture medium. Cell viability was analyzed 48 hours following addition of each compound through the monitoring of mitochondrial […] activity using PrestoBlue® Cell Viability Reagent (Invitrogen; #A-13261). Paclitaxel was used as a control which is cytotoxic on various cancerous cells although not on chemoresistant MESSA DX5 lineage.

The test system of assay [5] is MESSA DX5 cells. In words: Cytotoxicity assay (PrestoBlue cell viability), MESSA DX5. The assay is classed as cell-based, human. The protocol: as §4, §5, §6

Read-outs that look alike come from different tables or passages of the source. Some results are limits rather than exact numbers.

The term inhibition denotes the percentage by which the read-out fell short of the control. By IC50 is commonly meant the concentration needed to halve the response being measured. In assay [1], `O=C1c2ccccc2C(=O)c2nc(CS(=O)(=O)c3ccc([N+](=O)[O-])cc3)c(CS(=O)(=O)c3ccc([N+](=O)[O-])cc3)nc21` [PCR7991] showed an inhibition at 1 µM of 46%, an inhibition at 5 µM of 79%, an inhibition at 25 µM of 94% and an inhibition at 50 µM of 93%. Also, in assay [2] (Ub-Rhodamine substrate, Table 2a, read-out: IC50 against purified USP2^CD), the IC50 turned out to be 1.7 µM. In addition, the “USP8^CD % inhibition” value in assay [3] (0.1 μM compound) came to 42%. The “USP8^CD % inhibition” value in assay [3] (0.5 μM compound) amounted to 97%. Besides, 1 µM produced 98% inhibition in assay [3]. Further, the IC50 in assay [3] (Ub-Rhodamine substrate, Table 2a, read-out: IC50 against purified USP8^CD) worked out at 0.05 µM.
In assay [1], `Cc1cc(C)c(S(=O)(=O)Cc2nc3c(nc2CS(=O)(=O)c2c(C)cc(C)cc2C)C(=O)c2ccccc2C3=O)c(C)c1` [PCR7996] gave an inhibition at 1 µM of 25%, an inhibition at 5 µM of 51%, an inhibition at 25 µM of 85% and an inhibition at 50 µM of 95%. The compound also yielded an inhibition at 1 µM in assay [3] of 10%. For the same compound, the “USP8^CD % inhibition” value in assay [3] (5 μM compound) is 70%. In addition, the “USP8^CD % inhibition” value in assay [3] (25 μM compound) is 100%. Also, the “USP8^CD % inhibition” value in assay [3] (50 μM compound) is given as 100%.
For `O=C1c2ccccc2C(=O)c2nc(CS(=O)(=O)c3cccs3)c(CS(=O)(=O)c3cccs3)nc21` [PCR7997], the inhibition at 1 µM in assay [1] worked out at 0%; in assay [3] it was 13%. The compound also had an inhibition at 5 µM in assay [1] of 22%. The compound further registered an inhibition at 25 µM in assay [1] of 70%. The inhibition at 50 µM in assay [1] is 99%. In addition, the “USP8^CD % inhibition” value in assay [3] (0.1 μM compound) amounted to 17%; in assay [3] (0.5 μM compound), 3%; in assay [3] (5 μM compound), 61%; in assay [3] (25 μM compound) it was 97%; in assay [3] (50 μM compound), 100%.
In the case of `O=C1c2ccccc2C(=O)c2nc(CCl)c(CCl)nc21` [PCR8146], the inhibition at 1 µM in assay [1] stood at 30%; in assay [3], 6%. For the same compound, the inhibition at 5 µM in assay [1] came to 50%. For the same compound, 25 µM produced 89% inhibition in assay [1]. In addition, in assay [1], the inhibition at 50 µM was 99%. Besides, the IC50 turned out to be 6 µM in assay [2] (Ub-AMC substrate at 1 μM, Table 2b, read-out: IC50 USP2 CD) and 2.1 µM in assay [3] (Ub-AMC substrate at 1 μM, Table 2b, read-out: IC50 USP8 CD). The “USP8^CD % inhibition” value in assay [3] (0.1 μM compound) is on record as 11%; in assay [3] (0.5 μM compound), 35%; in assay [3] (5 μM compound), 43%; in assay [3] (25 μM compound) it was 90%; in assay [3] (50 μM compound), 100%.
In assay [1], `O=C1c2ccccc2C(=O)c2nc(C=C3CCCC3)c(C=C3CCCC3)nc21` [PCR8153] had an inhibition at 1 µM of 8%, an inhibition at 5 µM of 54%, an inhibition at 25 µM of 98% and an inhibition at 50 µM of 98%. The same compound showed an inhibition at 1 µM in assay [3] of 0%. Further, in assay [3] (5 μM compound), the “USP8^CD % inhibition” value amounted to 22%. Besides, in assay [3] (25 μM compound), the “USP8^CD % inhibition” value turned out to be 100%. Also, the “USP8^CD % inhibition” value in assay [3] (50 μM compound) came to 100%.
Regarding `CC/C=C/c1nc2c(nc1/C=C/CC)C(=O)c1ccccc1C2=O` [PCR8156], the inhibition at 1 µM in assay [1] was 0%; in assay [3], 7%. The inhibition at 5 µM in assay [1] turned out to be 28%. The compound further gave an inhibition at 25 µM in assay [1] of 58%. The same compound returned an inhibition at 50 µM in assay [1] of 94%. Moreover, the “USP8^CD % inhibition” value in assay [3] (0.1 μM compound) is listed as 6%; in assay [3] (0.5 μM compound) it was 25%; in assay [3] (5 μM compound), 43%; in assay [3] (25 μM compound) it was 100%; in assay [3] (50 μM compound) it was 86%.
One may read the EC50 as the concentration that produces a half-maximal response. Low readings indicate greater potency, high ones weaker potency. For `CC(=O)O[C@H]1C(=O)[C@@]2(C)[C@H]([C@H](OC(=O)c3ccccc3)[C@]3(O)C[C@H](OC(=O)[C@H](O)[C@@H](NC(=O)c4ccccc4)c4ccccc4)C(C)=C1C3(C)C)[C@]1(OC(C)=O)CO[C@@H]1C[C@@H]2O` [Paclitaxel, reference compound], the EC50 is 1.5 µM in assay [4] and more than 100 µM in assay [5] (Homo sapiens, MES-SA/Dx5, 48 hours treatment, chemoresistant line). Further, in assay [5] (high concentration (100 μM)), the MESSA-DX5 cells death result was “did not induce MESSA-DX5 cells death”.
